Results: article PMC11843658 (Journal of Enzyme Inhibition and Medicinal Chemistry, 2025)

How the values were obtained:
[1] = tested on: HEP3B cells; assay: CCK8 assay, HEP3B liver cancer cells; format: cell-based; settings: Homo sapiens, CCK8, 48 h, 0-5 μM, read-out: IC50, antiproliferative activity
Description: (§1) C42B, PC3, Caco-2, HepG2, MCF7, HL-60, 8505 C, OVCAR-3, and A549 were cultured to screen the broad-spectrum antiproliferative activity of compound 14. For above cell lines, three thousand cells per well were seeded in the 96-well plate and treated by compound 14 for 48 or 72 h at different concentrations (0, 5, 10, and 20 μM). In addition, HepG2, HEP3B, HUH6, and HUH7 were cultured to screen its antiproliferative activity against liver cancer cell lines. For these liver cancer cell lines, two thousand cells per well were seeded in the 96-well plate and treated by compound 14 for 48 h at different concentrations (0, 0.625, 1.25, 2.5, and 5 μM). Then, 10 μl of CCK8 was added into each well and cells were incubated in a humidified atmosphere of 5% CO2 at 37 °C for 4 h. The 96-well plate was measured with a microplate reader (Bio-Tek, San Diego, CA) at a wavelength of 450 nm to calculate IC50 values.

[2] = target: T1, LSD1 (Homo sapiens, UniProt O60341); assay: Dialysis assay to evaluate the reversibility; format: biochemical; settings: dialysis against HEPES buffer, GSK-LSD1 as irreversible reference
Description: A mixture of compound 14 and the recombinant LSD1 was incubated for 60 min at 37 °C. Then, the system was dialysed against 50 mmol/l HEPES buffer at 37 °C for 12 h. Finally, the HEPES buffer was replaced and the system was incubated for 12 h at 37 °C. In the dialysis experiment, an irreversible inhibitor GSK-LSD1 was purchased as the reference drug (Innochem, Beijing, China).

[3] = tested on: H3K4me1/2; assay: Western blotting of LSD1 substrates H3K4me1/2; format: cell-based; settings: Western blotting, 0, 0.5, 1, and 2 μM, 48 h
Description: (§2) Compound 14 at different concentrations (0, 0.5, 1, and 2 μM) was added into cancer cells solution and incubated for 48 h. Total protein was isolated from cells using RIPA buffer (Servicebio, Wuhan, China). An amount of […] of total protein were separated by sodium dodecyl sulphate polycrylamide gel electrophoresis and transferred to PVDF membranes. 5% non-fat milk (Servicebio, Wuhan, China) was used to block PVDF membranes and incubated with primary antibody for 12 h at 4 °C. Then, PVDF membranes were washed by TBST buffer (Servicebio, Wuhan, China) and incubated with secondary antibody at room temperature for 2 h. The enhanced chemiluminescence kit (Servicebio, Wuhan, China) was used to visualise immunoreactive bands. H3, GAPDH, Vimentin, N-cadherin, and E-cadherin as antibodies were purchased from Servicebio (Wuhan, China). Catalogue numbers of H3, GAPDH, Vimentin, N-cadherin, and E-cadherin as antibodies in Servicebio are GB11102, GB15004, GB11192, GB12135, and GB12868, respectively. H3K4me1 and H3K4me2 were obtained from Proteintech Group, Inc (Wuhan, China). Catalogue numbers of H3K4me1 and H3K4me2 as antibodies in Proteintech Group are 91289 and 39679, respectively.

[4] = tested on: OVCAR-3 cells; assay: CCK8 assay, OVCAR-3 ovarian cancer cells; format: cell-based; settings: Homo sapiens, 10 μM, 48 h, read-out: cell viability rate
Description: as §1

[5] = tested on: HepG2 cells; assay: CCK8 assay, HepG2 liver cancer cells; format: cell-based; settings: Homo sapiens
Description: as §1

[6] = Toxicity in xenograft study: weight of mice, haematoxylin and eosin staining of organs; format: in vivo; settings: 60 mg/kg by gavage every day for 21 days, vs control group
[7] = target: T1, LSD1; assay: LSD1 screening assay kit (enzymatic activity); format: biochemical; parameters: purchased Cayman Chemical (Ann Arbor, MI); settings: fluorescence, read-out: IC50 against LSD1
Description: After the incubation for 30 min at 37 °C, a mixture of horseradish peroxidase solution (20 μl) and fluorometric substrate solution (10 μl) was added to each well. Then, the 96-well plate was incubated for 15 min at 37 °C. Finally, the fluorescence of each well in the 96-well plate was measured at an emission wavelength of 590 nm and an excitation wavelength of 530 nm by a fluorimeter (Agilent Technologies Inc., Palo Alto, CA). Seclidemstat, a famous LSD1 inhibitor, was used as the control drug in this assay.

[8] = tested on: HepG2 cells; assay: Wound healing and transwell assays; format: cell-based, Human; settings: 48 h, compared to control group
Description: Cancer cells were seeded into a 6-well plate for 12 h and each well was scratched using a sterile micropipette tip. Cellular debris was removed by PBS solution (Servicebio, Wuhan, China), and compound 14 at different concentrations (0, 0.5 μM, 1 μM, and 2 μM) was added. The 6-well plate was incubated for 48 h and photographed on a microscope.
Cancer cells were seeded into a Transwell 24-well plate (Corning, NY) and compound 14 was added. About 20% foetal bovine serum and 1% heat-inactivated foetal bovine serum were respectively added into the lower and upper chamber. The 24-well plate was incubated for 48 h at 37 °C, and it was washed by water. Cancer cells were fixed with cold ethanol for 20 min and stained with haematoxylin solution (Servicebio, Wuhan, China).

[9] = tested on: HL-60 cells; assay: CCK8 assay, HL-60 leukaemia cells; format: cell-based; settings: Homo sapiens, 10 μM, 48 h, read-out: cell viability rate
Description: as §1

[10] = tested on: C42B cells; assay: CCK8 assay, C42B prostate cancer cells; format: cell-based; settings: Homo sapiens, 10 μM, 48 h, read-out: cell viability rate
Description: as §1

[11] = tested on: PC3 cells; assay: CCK8 assay, PC3 prostate cancer cells; format: cell-based; settings: Homo sapiens, PC-3, 10 μM, 48 h, read-out: cell viability rate
Description: as §1

[12] = tested on: MCF7 cells; assay: CCK8 assay, MCF7 breast cancer cells; format: cell-based; settings: Homo sapiens, 10 μM, 48 h, read-out: cell viability rate
Description: as §1

[13] = tested on: E-cadherin, N-cadherin, and Vimentin in HepG2 cells; assay: Western blotting of epithelial–mesenchymal transition-related proteins; format: cell-based, Human
Description: as §2

SMILES: COc1ccc(CN(C(=O)CCN2C(=O)CCCC2=O)c2cc(OC)c(OC)c(OC)c2)cc1 [Compound 14, 3-(2,6-dioxopiperidin-1-yl)-N-(4-methoxybenzyl)-N-(3,4,5-trimethoxyphenyl)propanamide]
- IC50 [1]: 2090 nM
- reversibility of LSD1 inhibition [2]: inhibits LSD1 in a reversible manner
- methylation levels of H3K4me1 and H3K4me2 [3]: increase the methylation levels of H3K4me1 and H3K4me2
- viability at 10 µM [4]: 80.7%
- viability at 10 µM ([5]; 10 μM, 48 h, read-out: cell viability rate): 14.2%
- IC50 ([5]; CCK8, 48 h, 0-5 μM, read-out: IC50, antiproliferative activity): 930 nM
- body weight of nude mice [6]: did not show significant changes in body weight
- haematoxylin and eosin staining of liver, spleen, lung, and kidney [6]: no morphological differences
- IC50 [7]: 180 nM
- migration of HepG2 cells [8]: significantly suppresses the migration of HepG2 cells
- viability at 10 µM [9]: 35.7%
- viability at 10 µM [10]: 88%
- viability at 10 µM [11]: 52%
- viability at 10 µM [12]: 49.7%
- expression level of E-cadherin [13]: increases the expression level of E-cadherin
- expression levels of N-cadherin and Vimentin [13]: decreases the expression levels of N-cadherin and Vimentin
